Consider 7 compounds from patent US20250338846A1, “COMPOSITIONS HAVING PESTICIDAL UTILITY AND PROCESSES RELATED THERETO” (CORTEVA AGRISCIENCE, LLC, priority 2022, published 2025).

Common to all, as to format: in vivo
The subject of assay [1] is Western Flower Thrips (Frankliniella occidentalis, FRANOC). The experiment in a line: Bioassay 3: Western Flower Thrips, cotton leaf disc dip, live WFT counted 3 days after treatment. To be noted: Frankliniella occidentalis, foliar, 72 h; for pest or weed control at 0.005 % strength: AI alone 0.005 % w/v. As for the experimental part:
Stock solutions of Formula One and various active ingredients were prepared initially at a concentration of 8 mg/ml for Formula One and 1 mg/mL for the active ingredients, respectively, using acetone as a diluent. Stock solutions were prepared with Formula One as well as for each of the active ingredients individually. Test solutions were prepared from the stock solutions. Test solutions were prepared containing Formula One, the individual active ingredients, and mixtures of Formula One with each of the active ingredients. The test solution for Formula One was prepared by adding 500 μL of the stock solution to a 25 mL glass vial, then adding 500 μL of acetone, followed by the addition of 9 mL water with 0.025% Tween®) 20 to create a 0.04% (w/v) solution. The test solutions of the individual active ingredients were prepared by adding 500 μL of stock solution to a 25 mL glass vial, then adding 500 μL of acetone, followed by the addition of 9 mL water with 0.025% Tween®) 20 to create a 0.005% (w/v) solution. The test solutions containing mixtures of Formula One and the individual active ingredients were prepared by adding 500 μL of the active ingredient stock solution to a 25 mL glass vial, followed by 500 μL of the Formula One stock solution, then by the addition of 9 mL water with 0.025% Tween®) 20 to create a test solution containing 0.04% (w/v) Formula One and 0.005% (w/v) of the active ingredient. Each test solution was serially diluted to create desired doses of test solutions (0.005% (w/v), 0.00125% (w/v), 0.0003125% (w/v), 0.000078% (w/v), and 0.0000195% (w/v)). In test solutions containing mixtures of Formula One and the active ingredients, the active ingredients were diluted as described above, but the Concentration of Formula One was held constant (0.04% (w/v)).
The test solutions were tested against WFT using the following procedure: Leaf discs (2.7 cm in diameter) were cut from the true leaves of cotton plants. Leaf discs were dipped into the test solutions and shaken to ensure complete coverage of the leaf disc and then placed in Millipore®) PetriSlides containing a filter paper disc. Treated leaf discs were air dried for approximately 1 hour. Each leaf disc was infested with 5 WFT (9-10-day old nymphs) by placement on each leaf disc, and the PetriSlides were capped to prevent escape. Each treatment was replicated three times and the test treatments were held at approximately 26° C. and ambient relative humidity (RH) prior to grading. Reference discs (solvent check) were treated with the diluent only. Evaluation was conducted by counting the number of live WFT under magnification 3 days after treatment. Percent control was measured using Abbott's correction formula (W. S. Abbott, J. Econ. Entomol. 18 (1925), pp. 265-267) as follows:
where X=No. of live nymphs on solvent check leaf discs and Y=No. of live nymphs on treated leaf discs. In Table B3 the “Expected % Control” was calculated using the method described in Colby S. R., Weeds, 1967, 15, 20-22. Bioassay 4: Western Tarnished Plant Bug (Lygus hesperus, LYGUHE) (“WTPB”).

Assay [2] has as its system Neotropical Brown Stink Bug (Euschistus heros, EUSCHE). The experiment in a line: whole plant or invertebrate. Conditions: Euschistus heros, 72 h, read-out: Average % Control AI. On the procedure:
X=No. of live nymphs on solvent check and Y=No. of live nymphs on treated bean segments. In Table B4 the “Expected % Control” was calculated using the method described in Colby S. R., Weeds, 1967, 15, 20-22. Bioassay 5: Neotropical Brown Stink Bug (Euschistus heros, EUSCHE) (“BSB”).
Stock solutions were prepared with Formula One as well as for each of the active ingredients individually. Test solutions were prepared from the stock solutions. Test solutions were prepared containing Formula One, the individual active ingredients, and mixtures of Formula One with each of the active ingredients. The test solution for Formula One was prepared by adding 500 μL of the stock solution to a 25 mL glass vial, then adding 500 μL of acetone, followed by the addition of 9 mL water with 0.025% Tween®) 20 to create a 0.04% (w/v) solution. The individual active ingredients were prepared by adding 500 μL of stock solution to a 25 mL glass vial, then adding 500 μL of acetone, followed by the addition of 9 mL water with 0.025% Tween®) 20 to create a 0.005% (w/v) solution. The test solutions containing mixtures of Formula One and the individual active ingredients were prepared by adding 500 μL of the active ingredient stock solution to a 25 mL glass vial, followed by 500 μL of the Formula One stock solution, then by the addition of 9 mL water with 0.025% Tween®) 20 to create a test solution containing 0.04% (w/v) Formula One and 0.005% (w/v) of the active ingredient. Each test solution was serially diluted to create desired doses of test solutions (0.01% (w/v), 0.0025% (w/v), 0.000625% (w/v), 0.000156% (w/v), and 0.000039% (w/v)). In test solutions containing mixtures of Formula One and the active ingredients, the active ingredients were diluted as described above, but the Concentration of Formula One was held constant (0.04% (w/v)).
The test solutions that were tested against BSB were similar to those described above for WTPB. Fresh green beans were cut into segments approximately 1.5 inches long. Four bean segments were added to each test solution and soaked for approximately 15 minutes. After soaking, a single bean fragment was removed and placed into a single well of a 32-well rearing tray (Frontier Agricultural Sciences™), on top of a round filter paper disc. A reference treatment (solvent check) was treated with the diluent only. Each treatment was replicated four times and the test treatments were held at approximately 26° C. and ambient relative humidity (RH) prior to grading. Bean segments were allowed to air dry for ˜30 minutes. Three BSB nymphs were added to and contained in each well with a clear perforated adhesive lid. The total number of living BSB nymphs was recorded 3 days after application. Scoring was based off the total number of living nymphs out of all four replicates. Percent control was measured using Abbott's correction formula (W. S. Abbott, J. Econ. Entomol. 18 (1925), pp. 265-267) as follows:
where X=No. of live nymphs on solvent check and Y=No. of live nymphs on treated bean segments. In Table B5 the “Expected % Control” was calculated using the method described in Colby S. R., Weeds, 1967, 15, 20-22. Bioassay 6: Beet Armyworm (Spodoptera exigua, LAPHEG) (BAW), and Diamondback Moth (Plutella xylostella, PLUTMA) (DBM).

For assay [3], the system named is Sweet Potato Whitefly (Bemisia tabaci, BEMITA). The experiment in a line: Bioassay 2: Sweet Potato Whitefly, spray on cotton seedlings at crawler emergence, nymphs counted 7-9 days after treatment. To be noted: AI alone 0.1 (10-5) % w/v. On the procedure: Stock solutions were prepared with Formula One as well as for each of the active ingredients individually. Test solutions were prepared from the stock solutions. Test solutions were prepared containing Formula One, the individual active ingredients, and mixtures of Formula One with each of the active ingredients. The test solutions for Formula One and the individual active ingredients were prepared by adding 500 μL of stock solution to a 25 mL glass vial, then adding 500 μL of acetone, followed by the addition of 9 mL water with 0.025% Tween®) 20 to create a 0.001% (w/v) solution. The test solutions containing mixtures of Formula One and the individual active ingredients were prepared by adding 500 μL of the active ingredient stock solution to a 25 mL glass vial, followed by 500 μL of the Formula One stock solution, then by the addition of 9 mL water with 0.025% Tween®) 20 to create a test solution containing 0.001% (w/v) Formula One and 0.001% (w/v) of the active ingredient. Each test solution was serially diluted to create desired doses of test solutions (0.001% (w/v), 0.0001% (w/v), 0.00001% (w/v), 0.000001% (w/v), 0.0000001% (w/v), and 0.00000001% (w/v)).
The test solutions were tested against SPW using the following procedure: Cotton seedlings grown in 3-inch pots, pruned so that only one true leaf remained, were used as test substrate. Adult B. tabaci were allowed to colonize the cotton plants and lay eggs for 24 hours after which all adults were removed from the plants using compressed air. Plants were monitored for egg development and, when crawler emergence was underway (>25% emergence based on visual examination using a microscope), the plants were sprayed using the test solutions and methods described above for green peach aphids (GPA). Treated plants were held in a holding room at approximately 25° C. and ambient relative humidity (RH) prior to grading. Evaluation was conducted by counting the number of developed 2-3 instar nymphs per plant under a microscope 7-9 days after treatment. Percent control was measured using Abbott's correction formula (W. S. Abbott, J. Econ. Entomol. 18 (1925), pp. 265-267) as follows:
where X=No. of live nymphs on solvent check plants and Y=No. of live nymphs on treated plants. In Table B2 the “Expected % Control” was calculated using the method described in Colby S. R., Weeds, 1967, 15, 20-22. Bioassay 3: Western Flower Thrips (Frankliniella occidentalis, FRANOC) (“WFT”).

For assay [4], the system named is Green Peach Aphid (Myzus persicae, MYZUPE). The experiment in a line: Bioassay 1: Green Peach Aphid, foliar spray on infested cabbage seedlings, live aphids counted three days after treatment. As for the experimental part:
Bioassay 1: Green Peach Aphid (Myzus persicae, MYZUPE) (“GPA”).
The stock solutions were prepared with Formula One as well as for each of the active ingredients individually. Test solutions were prepared from the stock solutions. Test solutions were prepared containing Formula One, the individual active ingredients, and mixtures of Formula One with each of the active ingredients. The test solutions for Formula One and the individual active ingredients were prepared by adding 750 microliters (μL) of stock solution to a 25 mL glass vial, then adding 750 μL of 1:1 acetone: methanol solvent, followed by the addition of 13.5 ml water with 0.025% Tween®) 20 to create a 0.0005% (weight/volume (w/v)) solution. The test solutions containing mixtures of Formula One and the individual active ingredients were prepared by adding 750 μL of the active ingredient stock solution to a 25 mL glass vial, followed by 750 μL of the Formula One stock solution, then by the addition of 13.5 mL water with 0.025% Tween®) 20 to create a test solution containing 0.0005% (w/v) Formula One and 0.0005% (w/v) of the active ingredient. Each test solution was serially diluted to create desired doses of test solutions (0.0005% (w/v), 0.000125% (w/v), 0.00003125% (w/v), 0.0000078% (w/v), 0.00000195% (w/v), and 0.0000005% (w/v)).
The test solutions were tested against GPA using the following procedure: Cabbage seedlings, grown in 3-inch pots with 2-3 small (3-5 centimeter (cm)) true leaves, were used as test substrate. The seedlings were infested with 20-50 GPA (wingless adult and nymph stages) one day prior to chemical application. Four pots with individual seedlings were used for each treatment. A hand-held aspirator-type sprayer was used for spraying a solution to both sides of […] leaves until runoff. Reference plants (solvent check) were sprayed with the diluent only (0.025% Tween®) 20 and 10% acetone:methanol (1:1) in water). Treated plants were held in a holding room for three days at approximately 25° C. and ambient relative humidity (RH about 20% to about 45%) prior to grading. Evaluation was conducted by counting the number of live aphids per plant under a microscope three days after treatment. Percent control was measured using Abbott's correction formula (W. S. Abbott, J. Econ. Entomol. 18 (1925), pp. 265-267) as follows:
where X=No. of live aphids on solvent check plants and Y=No. of live aphids on treated plants. In Table B1 the “Expected % Control” was calculated using the method described in Colby S. R., Weeds, 1967, 15, 20-22. Bioassay 2: Sweet Potato Whitefly (Bemisia tabaci, BEMITA) (“SPW”).

The compound `CNC(=O)c1cc(Cl)cc(C)c1NC(=O)c1cc(Br)nn1-c1ncccc1Cl` [Chlorantraniliprole] showed a pest or weed control at 0.005 % strength in assay [1] of 7%. `CCOCn1c(-c2ccc(Cl)cc2)c(C#N)c(Br)c1C(F)(F)F` [Chlorfenapyr]: in assay [2] (AI alone 0.0025 % w/v), the pest or weed control at 0.0025 % strength was 8%. Also, in assay [1], the pest or weed control at 0.005 % strength was 57%.

In the case of `CNC(=O)c1cc(C#N)cc(C)c1NC(=O)c1cc(Br)nn1-c1ncccc1Cl` [Cyantraniliprole], in assay [3], the “Average % Control AI” value was 0%.

In the case of `CN/C(=N/CC1CCOC1)N[N+](=O)[O-]` (stereo not shown) [Dinotefuran], the pest or weed control at 0.000156 % strength in assay [2] came out at 17%.

As to `COc1cccc(C(=O)NN(C(=O)c2cc(C)cc(C)c2)C(C)(C)C)c1C` [Methoxyfenozide], the “Average % Control AI” value in assay [4] (AI alone 0.195 (10^-5) % w/v) is 5%. In turn, `CC(COc1ccc(Oc2ccccc2)cc1)Oc1ccccn1` (stereo not shown) [Pyriproxyfen] displayed a pest or weed control at 0.00125 % strength in assay [1] (AI alone 0.00125 % w/v) of 17%. The “Average % Control AI” value in assay [3] was found to be 8%. As to `CCOC(=O)OC1=C(c2cc(C)ccc2C)C(=O)N[C@]12CC[C@@H](OC)CC2` [Spirotetramat], the pest or weed control at 7.8e-05 % strength in assay [1] (AI alone 0.000078 % w/v, read-out: Average % Control AI) was 7%. In assay [4] (AI alone 0.05 (10^-5) % w/v), the “Average % Control AI” value is given as 15%.
